Series [1] can be described thus: Stability testing of N-acetylcysteine by headspace gas chromatography. The format is physicochemical.
Series [2] is described as follows: Decomposition during processing of the material (sulphurous smell). The series is classed as physicochemical. The conditions noted are these: between about 40 and 48° C. compared to working at above 50° C.; evident by reduced sulphurous smell.

Each structure is given as a SMILES string.

Consider `CC(=O)N[C@@H](CS)C(=O)O` [N-acetylcysteine, N-acetyl-L-cysteine], for which the “sulphur species detectable by headspace gas chromatography” value in series [1] (sample subjected to 60° C. for 2 hours) was “two sulphurous species, acetyl mercaptane and s-ethyl ethanthioate, were detected”; in series [1] (sample treated at 40° C. for 2 hours) it was “no sulphur species are detectable”. Also, the “decomposition of N-acetylcysteine” value in series [2] is given as “notably suppressed”.

Source of the values: patent US9636307B2, “Oral pharmaceutical composition comprising taste-masked N-acetylcysteine” (HERMES ARZNEIMITTEL GMBH, priority 2013, dated 2017).
